Measured values as given in patent US11136317B2, “NADPH oxidase 4 inhibitors” (ACTELION PHARMACEUTICALS LTD, priority 2015, dated 2021).

What was measured:
[1] = molecular target: horseradish peroxidase / H2O2 (Armoracia rusticana, UniProt P00433); assay: Amplex Red counter screen assay (cells replaced by H2O2); assay type: biochemical; conditions: counter screen: H2O2-generating cells replaced by 1562.5 nM H2O2 in 1×PBS; read-out: IC50 Control
Procedure: In order to identify compounds that interfere with the activity assay either by inhibiting the activity of horseradish peroxidase or by directly interacting with the formed H2O2 a counter screen assay was established. This control assay is almost identical to the described Amplex Red activity assay with the only difference that the H2O2— generating cells are replaced by 1562.5 nM H2O2 in 1×PBS.

human NOX4 = molecular target: T1, human NOX4 (Homo sapiens, UniProt Q9NPH5); assay: Amplex Red activity assay (cellular H2O2 formation in hNOX4 T-REx-293 cells); assay type: cell-based; conditions: tet-induced 24 h, extracellular H2O2 by Amplex Red, 60 min 25° C., geometric mean if determined several times
T1 construct: The full-length human NOX4 (NM_016931.3) transcript was cloned; expressed in transfected cells
T1 sequence (Q9NPH5 1-578): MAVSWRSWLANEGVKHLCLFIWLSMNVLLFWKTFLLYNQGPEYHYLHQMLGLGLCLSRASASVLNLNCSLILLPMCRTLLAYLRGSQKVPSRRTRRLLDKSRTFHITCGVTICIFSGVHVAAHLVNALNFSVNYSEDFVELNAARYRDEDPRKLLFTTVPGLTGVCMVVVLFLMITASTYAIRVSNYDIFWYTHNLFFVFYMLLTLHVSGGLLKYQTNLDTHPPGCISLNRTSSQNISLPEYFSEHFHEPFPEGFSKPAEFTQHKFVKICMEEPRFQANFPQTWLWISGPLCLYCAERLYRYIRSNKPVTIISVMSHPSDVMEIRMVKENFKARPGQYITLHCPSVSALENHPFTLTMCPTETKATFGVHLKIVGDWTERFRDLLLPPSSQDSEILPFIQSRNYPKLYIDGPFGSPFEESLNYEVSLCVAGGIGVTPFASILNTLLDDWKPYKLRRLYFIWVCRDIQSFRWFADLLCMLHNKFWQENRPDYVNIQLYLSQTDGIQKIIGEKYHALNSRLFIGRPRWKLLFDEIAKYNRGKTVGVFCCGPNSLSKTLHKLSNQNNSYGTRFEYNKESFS
T1 sequence (P13498 1-195 partner): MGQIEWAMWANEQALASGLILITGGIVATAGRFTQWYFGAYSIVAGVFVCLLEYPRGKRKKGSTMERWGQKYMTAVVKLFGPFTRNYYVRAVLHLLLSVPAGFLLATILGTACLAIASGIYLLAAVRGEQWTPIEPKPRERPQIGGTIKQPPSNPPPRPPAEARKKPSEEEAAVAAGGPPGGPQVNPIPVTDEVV
In short: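 Tet-induced (1 μg/mL, 24 h) HEK293 T-REx cells stably expressing full-length human NOX4, 20 000 cells/well, exposed to compounds (10 concentrations, 50 μM to 100 nM; 1.25% DMSO) for 60 min at 25°C. Extracellular H2O2 detected by Amplex Red resorufin fluorescence (ex 550/em 600 nm) versus vehicle; IC50 calculated.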

Chain of horseradish peroxidase / H2O2 (P00433 31-338): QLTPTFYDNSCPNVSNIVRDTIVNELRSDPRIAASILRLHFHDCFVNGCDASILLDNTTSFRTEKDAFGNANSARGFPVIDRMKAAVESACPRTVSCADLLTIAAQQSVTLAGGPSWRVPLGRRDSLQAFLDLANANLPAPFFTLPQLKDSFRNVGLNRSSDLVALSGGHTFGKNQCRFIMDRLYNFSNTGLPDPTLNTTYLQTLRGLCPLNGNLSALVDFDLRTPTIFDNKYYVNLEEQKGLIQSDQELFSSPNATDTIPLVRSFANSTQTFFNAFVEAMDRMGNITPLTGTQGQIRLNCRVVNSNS

Molecule	IC50 [1]	IC50 (human NOX4)
2,3-Dihydro-benzofuran-5-carboxylic acid (2-dimethylamino-benzothiazol-5-yl)-amide [Example 86]	> 50 µM	2.68 µM
2,3-Dihydro-benzofuran-5-carboxylic acid [2-(1-oxa-7-aza-spiro[3.5]non-7-yl)-benzooxazol-5-yl]-amide [Example 28]	> 50 µM	0.695 µM
CN1CCN(c2nc3cc(C(=O)Nc4ccc5c(c4)CCO5)ccc3s2)CC1 [Example 201, 2-(4-Methyl-piperazin-1-yl)-benzothiazole-5-carboxylic acid (2,3-dihydro-benzofuran-5-yl)-amide]		2.87 µM
O=C(Nc1ccc2c(c1)CCO2)c1ccc2sc(N3CCC34CCOC4)nc2c1 (stereo not drawn) [Example 202, 2-(6-Oxa-1-aza-spiro[3.4]oct-1-yl)-benzothiazole-5-carboxylic acid (2,3-dihydro-benzofuran-5-yl)-amide]		0.729 µM
O=C(Nc1ccc2c(c1)OCCO2)c1ccc2sc(N3CCC34COC4)nc2c1 [Example 203, 2-(6-Oxa-1-aza-spiro[3.3]hept-1-yl)-benzothiazole-5-carboxylic acid (2,3-dihydro-benzo[1,4]dioxin-6-yl)-amide]		1.84 µM
O=C(Nc1ccc2c(c1)OCCO2)c1ccc2sc(N3CCC(F)(F)CC3)nc2c1 [Example 204, 2-(4,4-Difluoro-piperidin-1-yl)-benzothiazole-5-carboxylic acid (2,3-dihydro-benzo[1,4]dioxin-6-yl)-amide]		25.5 µM
COC1CCN(c2nc3cc(C(=O)Nc4ccc5c(c4)OCCO5)ccc3s2)CC1 [Example 205, 2-(4-Methoxy-piperidin-1-yl)-benzothiazole-5-carboxylic acid (2,3-dihydro-benzo[1,4]dioxin-6-yl)-amide]		26.8 µM
CN1CCN(c2nc3cc(C(=O)Nc4ccc5c(c4)OCCO5)ccc3s2)CC1 [Example 206, 2-(4-Methyl-piperazin-1-yl)-benzothiazole-5-carboxylic acid (2,3-dihydro-benzo[1,4]dioxin-6-yl)-amide]		21.2 µM
O=C(Nc1ccc2c(c1)OCCO2)c1ccc2sc(N3CCCCC3)nc2c1 [Example 207, 2-Piperidin-1-yl-benzothiazole-5-carboxylic acid (2,3-dihydro-benzo[1,4]dioxin-6-yl)-amide]		12.8 µM
O=C(Nc1ccc2c(c1)OCCO2)c1ccc2sc(N3CCC34CCOC4)nc2c1 (stereo not drawn) [Example 208, 2-(6-Oxa-1-aza-spiro[3.4]oct-1-yl)-benzothiazole-5-carboxylic acid (2,3-dihydro-benzo[1,4]dioxin-6-yl)-amide]		2.71 µM
O=C(Nc1ccc2c(c1)OCO2)c1ccc2sc(N3CCC34COC4)nc2c1 [Example 209, 2-(6-Oxa-1-aza-spiro[3.3]hept-1-yl)-benzothiazole-5-carboxylic acid benzo[1,3]dioxol-5-ylamide]		1.5 µM
COC1CCN(c2nc3cc(C(=O)Nc4ccc5c(c4)OCO5)ccc3s2)CC1 [Example 210, 2-(4-Methoxy-piperidin-1-yl)-benzothiazole-5-carboxylic acid benzo[1,3]dioxol-5-ylamide]		6.9 µM
CN1CCN(c2nc3cc(C(=O)Nc4ccc5c(c4)OCO5)ccc3s2)CC1 [Example 211, 2-(4-Methyl-piperazin-1-yl)-benzothiazole-5-carboxylic acid benzo[1,3]dioxol-5-ylamide]		8.9 µM
